Converted amounts (≈) assume the structure as drawn. “And” between values parts separate entries of the source, which are not always exact repeats. Equal entries are not always repeated.
Experiments:
[1] = Antiplatelet activity against collagen-induced rabbit platelet assessed as inhibition of platelet aggregation at 100 ug/ml relative to control; type: functional; conditions: Oryctolagus cuniculus
[2] = Antiplatelet activity against arachidonate-induced rabbit platelet assessed as inhibition of platelet aggregation at 100 ug/ml relative to control; type: functional; conditions: Oryctolagus cuniculus
[3] = Antiplatelet activity against arachidonate-induced rabbit platelet assessed as inhibition of platelet aggregation at 50 ug/ml relative to control; type: functional; conditions: Oryctolagus cuniculus
[4] = system: Caenorhabditis elegans; experiment: Nematocidal activity against Caenorhabditis elegans; type: functional, organism-based
[5] = system: DU-145; experiment: Antiproliferative activity against human DU-145 cells assessed as cell growth inhibition; type: functional
[6] = system: Leishmania amazonensis; experiment: Antileishmanial activity against Leishmania amazonensis axenic amastigotes assessed as inhibition of parasite growth; type: functional, organism-based
[7] = system: K562; experiment: Antiproliferative activity against human K562 cells assessed as cell growth inhibition; type: functional
[8] = system: HCT-116; experiment: Antiproliferative activity against human HCT-116 cells assessed as cell growth inhibition; type: functional
[9] = system: Trypanosoma brucei brucei; experiment: […] activity against Trypanosoma brucei brucei GUTat 3.1 assessed as inhibition of parasite growth measured after 72 hrs by alamar blue assay; type: functional, organism-based; conditions: GUTat 3.1, time 72 hrs
[10] = system: KB; experiment: Antiproliferative activity against human KB cells assessed as cell growth inhibition; type: functional, cell-based
[11] = Cytotoxicity against mouse 3T3 cells assessed as reduction in cell viability; type: toxicity, cell-based; conditions: NIH3T3 cells
[12] = system: M14; experiment: Antiproliferative activity against human M14 cells assessed as cell growth inhibition; type: functional
[13] = system: U-937; experiment: Antiproliferative activity against human U-937 cells assessed as cell growth inhibition; type: functional
[14] = system: NCI-H460; experiment: Antiproliferative activity against human NCI-H460 cells assessed as cell growth inhibition; type: functional
[15] = system: P388; experiment: Antiproliferative activity against mouse P388 cells assessed as cell growth inhibition; type: functional, cell-based
[16] = system: MCF7; experiment: Antiproliferative activity against human MCF7 cells assessed as cell growth inhibition; type: functional, cell-based
[17] = system: A549; experiment: Antiproliferative activity against human A549 cells assessed as cell growth inhibition; type: functional
[18] = system: HT-29; experiment: Antiproliferative activity against human HT-29 cells assessed as cell growth inhibition; type: functional, cell-based
[19] = organism: Homo sapiens; experiment: Inhibition of LTB3 (unknown origin) at 0.000001 M relative to control; conditions: dose 1 µM
[20] = target: T1, Polyunsaturated fatty acid 5-lipoxygenase (Homo sapiens) (UniProt P09917); experiment: Inhibition of ALOX5 (unknown origin) at 0.00001 M relative to control; conditions: dose 10 µM
T1 sequence (whole entry): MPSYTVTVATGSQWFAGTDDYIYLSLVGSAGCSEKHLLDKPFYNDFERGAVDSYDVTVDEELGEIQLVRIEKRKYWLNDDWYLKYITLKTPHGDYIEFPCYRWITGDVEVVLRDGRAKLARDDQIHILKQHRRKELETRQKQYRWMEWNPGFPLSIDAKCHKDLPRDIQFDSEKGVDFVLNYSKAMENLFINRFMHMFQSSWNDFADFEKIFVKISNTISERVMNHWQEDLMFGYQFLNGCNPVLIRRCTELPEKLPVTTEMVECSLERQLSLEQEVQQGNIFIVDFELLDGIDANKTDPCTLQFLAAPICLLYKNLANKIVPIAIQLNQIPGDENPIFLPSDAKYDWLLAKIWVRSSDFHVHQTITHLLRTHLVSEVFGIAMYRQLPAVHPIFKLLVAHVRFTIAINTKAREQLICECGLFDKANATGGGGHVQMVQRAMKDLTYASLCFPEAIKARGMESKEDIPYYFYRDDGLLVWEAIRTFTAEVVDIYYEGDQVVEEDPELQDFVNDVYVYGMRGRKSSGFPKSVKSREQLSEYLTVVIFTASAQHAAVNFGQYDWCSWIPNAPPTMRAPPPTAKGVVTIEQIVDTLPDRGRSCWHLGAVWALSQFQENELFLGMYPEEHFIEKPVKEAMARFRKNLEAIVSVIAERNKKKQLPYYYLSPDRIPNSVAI

[21] = system: Pasteurella multocida; experiment: Antibacterial activity against Pasteurella multocida assessed as inhibition of bacterial growth; type: functional
[22] = system: Streptococcus pyogenes; experiment: Antibacterial activity against Streptococcus pyogenes assessed as inhibition of bacterial growth; type: functional
[23] = target: T1, Polyunsaturated fatty acid 5-lipoxygenase (Homo sapiens); experiment: Inhibition of ALOX5 (unknown origin) at 0.0000001 M relative to control; conditions: dose 100 nM
[24] = system: Trichophyton mentagrophytes; experiment: Antifungal activity against Trichophyton mentagrophytes assessed as inhibition of microbial growth; type: functional
[25] = system: Candida albicans; experiment: Antifungal activity against Candida albicans assessed as inhibition of fungal growth by MTT assay; type: functional
[26] = target: Cyclooxygenase (Homo sapiens, UniProt P35354+P23219); experiment: Inhibition of COX (unknown origin); type: protein assay
[27] = system: Pyricularia oryzae; experiment: Antifungal activity against Pyricularia oryzae assessed as inhibition of microbial growth; type: functional, organism-based
[28] = Antioxidant activity assessed as DPPH radical scavenging activity; type: functional
[29] = system: Trypanosoma brucei rhodesiense; experiment: […] activity against drug sensitive Trypanosoma brucei rhodesiense assessed as inhibition of parasite growth; type: functional, organism-based
[30] = system: Bacillus cereus; experiment: Antibacterial activity against Bacillus cereus assessed as inhibition of bacterial growth; type: functional
[31] = organism: Homo sapiens; experiment: Inhibition of LTB3 (unknown origin) at 0.00001 M relative to control; conditions: dose 10 µM
[32] = organism: Homo sapiens; experiment: Inhibition of LTB3 (unknown origin) at 0.0000001 M relative to control; conditions: dose 100 nM
[33] = system: Cryptococcus neoformans; experiment: […] activity against Cryptococcus neoformans assessed as inhibition of […]; type: functional
[34] = system: Rhizoctonia solani; experiment: Antifungal activity against Rhizoctonia solani assessed as inhibition of microbial growth; type: functional
[35] = system: Trypanosoma brucei brucei; experiment: Antitrypanosomal activity against bloodstream Trypanosoma brucei brucei assessed as parasite growth inhibition measured after 72 hrs by alamar blue assay; type: functional, organism-based
[36] = system: Neisseria meningitidis; experiment: Antibacterial activity against Neisseria meningitidis assessed as inhibition of bacterial growth; type: functional
[37] = system: Human immunodeficiency virus 1; experiment: Antiviral activity against HIV-1; type: functional, organism-based
[38] = system: Breast carcinoma cell; experiment: Antiproliferative activity against human Breast cancer cell line assessed as cell growth inhibition; type: functional, cell-based
[39] = system: Haemophilus influenzae; experiment: Antibacterial activity against Haemophilus influenzae assessed as inhibition of bacterial growth; type: functional
[40] = system: Plasmodium falciparum; experiment: Antimalarial activity against drug sensitive Plasmodium falciparum KI assessed as inhibition of parasite growth; type: functional, organism-based
[41] = target: T1, Polyunsaturated fatty acid 5-lipoxygenase (Homo sapiens); experiment: Inhibition of ALOX5 (unknown origin) at 0.00000001 M relative to control; conditions: dose 10 nM
[42] = organism: Rattus norvegicus; experiment: Inhibition of iron-induced lipid peroxidation in rat brain homogenate; type: functional
[43] = system: Bacillus subtilis; experiment: Antibacterial activity against Bacillus subtilis assessed as inhibition of bacterial growth; type: functional
[44] = Inhibition of plasmodium falciparum fabZ
[45] = system: Acinetobacter calcoaceticus; experiment: Antibacterial activity against Acinetobacter calcoaceticus assessed as inhibition of bacterial growth; type: functional
[46] = target: T1, Polyunsaturated fatty acid 5-lipoxygenase (Homo sapiens); experiment: Inhibition of ALOX5 (unknown origin) assessed as reduction in 5-HETE formation
[47] = system: Trypanosoma cruzi; experiment: […] activity against drug sensitive Trypanosoma cruzi assessed as inhibition of parasite growth; type: functional, organism-based
[48] = system: Streptococcus viridans; experiment: Antibacterial activity against Streptococcus viridans assessed as inhibition of bacterial growth; type: functional
[49] = organism: Homo sapiens; experiment: Inhibition of LTB3 (unknown origin) at 0.00000001 M relative to control; conditions: dose 10 nM
[50] = system: Leishmania donovani; experiment: […] activity against drug sensitive Leishmania donovani assessed as inhibition of parasite growth; type: functional, organism-based
[51] = system: Staphylococcus aureus; experiment: Antibacterial activity against Staphylococcus aureus assessed as inhibition of bacterial growth; type: functional
[52] = target: T1, Polyunsaturated fatty acid 5-lipoxygenase (Homo sapiens); experiment: Inhibition of ALOX5 (unknown origin) at 0.000001 M relative to control; conditions: dose 1 µM
[53] = target: Calmodulin-1 (Homo sapiens) (UniProt P0DP23); experiment: Inhibition of calmodulin (unknown origin)
[54] = system: Priestia megaterium; experiment: Antibacterial activity against Bacillus megaterium assessed as inhibition of bacterial growth; type: functional
[55] = system: Aspergillus niger; experiment: Antifungal activity against Aspergillus niger assessed as inhibition of microbial growth; type: functional
[56] = system: Plasmodium falciparum; experiment: Antimalarial activity against drug sensitive Plasmodium falciparum NF54 assessed as inhibition of parasite growth; type: functional, organism-based
[57] = target: DNA polymerase beta (Homo sapiens, UniProt P06746); experiment: Inhibition of DNA polymerase beta (unknown origin)
[58] = target: T1, Polyunsaturated fatty acid 5-lipoxygenase (Homo sapiens); experiment: Inhibition of ALOX5 (unknown origin) assessed as reduction in calmodulin level
[59] = target: Prothrombin (Homo sapiens, UniProt P00734); experiment: Inhibition of thrombin (unknown origin)

C=C1CC[C@H]2[C@@H]([C@H]3C(COC(C)=O)=CO[C@H](OC(C)=O)[C@@H]13)C2(C)C
inhibition at 100 µg/mL [1]: 100%
inhibition at 100 µg/mL [2]: 95%
inhibition at 50 µg/mL [3]: 45%

CC(=O)OCC1=CO[C@H](OC(C)=O)[C@@H]2[C@H]1[C@@H]1[C@H](CC[C@@]23CO3)C1(C)C
IC50 [4]: 111 µg/mL (≈ 317 µM)
GI50 [5]: 1.4 µM
IC50 [6]: 7.1 µM
GI50 [7]: 4.8 µM
GI50 [8]: 4.7 µM
MIC [9]: 14.5 µM (≈ 5.08 µg/mL)
IC50 [10]: 0.28 µg/mL
GI50 [11]: 1.7 µM
GI50 [12]: 3.9 µM
GI50 [13]: 2.6 µM
GI50 [14]: 4.8 µM
IC50 [15]: 3 µg/mL (≈ 8.56 µM)
GI50 [16]: 6.8 µM
GI50 [17]: 9.4 µM
GI50 [18]: 1.9 µM

Oc1cc2cc(c1O)Oc1ccc(cc1)CCc1cccc(O)c1Oc1cccc(c1)CC2 [MARCHANTIN A]
inhibition [19]: 97%
inhibition [20]: 89%
MIC [21]: 4.5 µM (≈ 1.98 µg/mL)
MIC [22]: 9.1 µM (≈ 4.01 µg/mL)
inhibition [23]: 45%
MIC [24]: 3.13 µg/mL
MID [25]: 2.5 µg/mL
IC50 [26]: 46.4 µM
MIC [27]: 12.5 µg/mL
IC50 [28]: 20 µg/mL (≈ 45.4 µM)
IC50 [29]: 2.09 µM
MIC [30]: 12.5 µg/mL (≈ 28.4 µM)
inhibition [31]: 99%
inhibition [32]: 70%
MIC [33]: 12.5 µg/mL (≈ 28.4 µM)
MIC [34]: 50 µg/mL
IC50 [35]: 0.27 µg/mL (≈ 0.613 µM)
MIC [36]: 72.7 µM (≈ 32 µg/mL)
IC50 [37]: 5.3 µg/mL (≈ 12 µM)
IC50 [38]: 5.5 µM
MIC [39]: 72.7 µM (≈ 32 µg/mL)
IC50 [40]: 2.02 µM
IC50 [10]: 3.7 µM
inhibition [41]: 16%
IC50 [42]: 0.51 µM
MIC [43]: 25 µg/mL (≈ 56.8 µM)
IC50 [44]: 18.2 µM
MIC [45]: 6.25 µg/mL (≈ 14.2 µM)
ID50 [46]: 1.85 µg/mL (≈ 4.2 µM)
IC50 [47]: 14.1 µM
MIC [48]: 18.1 µM (≈ 7.97 µg/mL)
inhibition [49]: 40%
IC50 [50]: 1.59 µM
MIC [51]: 3.13 µg/mL and 0.0069 µM
inhibition [52]: 94%
IC50 [16]: 4 µg/mL and 11.5 µM
ID50 [53]: 1.85 µg/mL (≈ 4.2 µM)
MIC [54]: 25 µg/mL (≈ 56.8 µM)
MIC [55]: 25 µg/mL
IC50 [56]: 3.41 µM
IC50 [57]: 14.4 µM
ID50 [58]: 1.85 µg/mL (≈ 4.2 µM)

Oc1cccc(CCc2ccc(Oc3cc(CCc4cccc(O)c4)ccc3O)cc2)c1
IC50 [59]: 18 µM

— ChEMBL document CHEMBL5260825, “Chemical Constituents of Bryophytes: Structures and Biological Activity” (J Nat Prod, 2018)
